Reference: patent publication US5250544A, “New piperidine tetrahydropyridine and pyrrolidine compounds” (Adir et Compagnie, priority 1990, dated 1993)

Experiment: Evaluation of the antihypertensive activity: arterial pressure and heart rate in anesthetized dogs, i.v.
Type: in vivo
Conditions: anesthetized mongrel dogs, versus flesinoxan racemic or isomer (+)
Experimental: Mongrel dogs (males and females) were anesthetized with phenobarbital (30 mg/kg i.v.) and then placed under artificial respiration (Bird Mark VII respirator). The arterial pressure was measured using a catheter placed in the abdominal aorta via the femoral artery. This catheter is connected to a pressure cell (Statham® R23 D6) connected to a recorder.
The heart rate was measured using a Gould Biotach®.
The sympathetic nervous activity was recorded at the level of the renal nerve using a silver electrode. […] The compounds to be examined were administered intravenously.

For `O=C(NCCN1CCN(c2cccc3c2OC[C@H](CO)O3)CC1)c1ccc(F)cc1` (single isomer, unassigned) [Flesinoxan (+) Isomer], the “activity compared with reference product flesinoxan (antihypertensive study, Table II)” value was “most active isomer of flesinoxan”.
